From paper PMC5290327, “SC83288 is a clinical development candidate for the treatment of severe malaria” (Nature Communications, 2017)
In brackets after ≈: the same amount, converted by molar mass. Where two headings read alike, the source gives them in different places.

Key:
5-HT2B (h) = molecular target: T1, 5-HT2B (h) (Homo sapiens, UniProt P41595); assay: Radioligand binding; settings: control compound
T1 construct: Cerep (contract screening)
Protocol: (§1) The study was carried out by Cerep (Celle l'Evescault, France). An in vitro pharmacological profiling panel was designed to detect potential high-risk clinical adverse drug reactions. The panel comprised of 54 targets.
(§2) The specific ligand binding to the receptors was defined as the difference between the total binding and the non-specific binding determined in the presence of an excess of unlabelled ligand. Results were expressed as a per cent of control specific binding and as a per cent inhibition of control specific obtained in the presence of the test compounds. Results showing an inhibition (or stimulation) >50% were considered to represent significant effects of the test compounds. […] The IC50 values were determined by non-linear regression analysis of the competition curves generated with mean replicate values using Hill equation curve fitting. The inhibition constants (Ki) were calculated using the Cheng Prusoff equation.

[1] = system: cytoplasmic free Ca2+ in P. falciparum HB3 trophozoites; assay: Ca2+ live imaging, Fluo-4; settings: SC compounds 10 and 20 μM; CPA 10 μM
[2] = molecular target: Ca2+ channel (L, verapamil site); assay: Radioligand binding; settings: control compound
Protocol: as §1, §2

P. falciparum strain Dd2 = assay: Growth inhibition assay, asexual blood stages; type: cell-based, Plasmodium falciparum
CACO 2 cells = assay: Permeability assay; type: in vitro ADME; settings: Supplementary Table 2
Protocol: (§3) The study was conducted by Cyprotex (Macclesfield, United Kingdom). CACO 2 cells (Sigma-Aldrich, catalogue: 86010202) were seeded on Millipore Millicell plates and formed a confluent monolayer over 20 days before the experiment. On day 20, the tested compounds at a final concentration of 10 μM were added to the apical side of the membrane. The transport of the compound across the monolayer was monitored over a 2 h period by liquid chromatography (LC)–MS/MS quantification. The permeability coefficient (Papp) was calculated from the following equation: [drawing 1] , where dQ/dt is the rate of permeation of the drug across the cells, C0 the donor compartment concentration at time zero and A the area of the cell monolayer. C0 was obtained from analysis of the dosing solution at the start of the experiment.

Plasmodium berghei = assay: Rodent malaria model; type: in vivo; settings: for Outcome: P. berghei
Protocol: This was the case for both an in vivo 4 day dosing regimen of 30 mg kg^−1 per day and an ex vivo one-cycle growth inhibition assay. […] Differential therapeutic efficacy in various rodent model systems is a well-established phenomenon and is typically associated with charged compounds, such as positively charged amidines and negatively charged phosphoric acid or carboxylic acid containing drugs. The phenomenon is explained based on selective uptake of charged compounds through parasite-induced channels, termed new permeation pathways, in the host cell plasma membrane and species-specific characteristics of the new permeation pathways.

Permeability assay = type: in vitro ADME; settings: human; CACO 2 cells, 10 μM, apical side, 2 h
Protocol: as §3

Plasmodium vinckei = assay: Rodent malaria model; type: in vivo; settings: P. vinckei, 30 mg kg-1 i.p. 1x4 days
Text: The two SC compounds were also active in the Plasmodium vinckei rodent malaria model system.

P. chabaudi = assay: Rodent malaria model; type: in vivo; settings: 10 mg kg-1 i.v. 1x4 days
PK study = type: in vivo, rat; settings: rat, plasma, po; rats
Protocol: On the treatment day, all animals were weighed and the dosing volume was calculated for each individual animal according to its actual body weight. All animal were dosed once. Blood samples were taken at different time points and plasma was collected after centrifugation (10,000g, 10 min, 4 °C). Plasma samples were analysed by LC–MS/MS. […] All relevant observations were recorded. The PK studies in cynomolgus monkeys and beagle dogs were performed by the Laboratory of Pharmacology and Toxicology (LPT), Hamburg, and PK and toxicity studies in mice and rats were performed by the 4SC Discovery GmbH, Munich. PK parameters were obtained by a non-compartment analysis, using Kinetica 4.1 (Thermo Scientific).

HepG2 cells = assay: Cytotoxicity; settings: 10 μM
Solubility in water = settings: for Solubility in H2O: Supplementary Table 2
[3] = In vitro metabolism in liver microsomes; settings: human microsome assay
TP (h) (TXA2/PGH2) = molecular target: T2, TP (h) (TXA2/PGH2) (Homo sapiens, UniProt P21731); assay: Radioligand binding; settings: control compound
T2 construct: Cerep
T2 sequence (P21731 1-343): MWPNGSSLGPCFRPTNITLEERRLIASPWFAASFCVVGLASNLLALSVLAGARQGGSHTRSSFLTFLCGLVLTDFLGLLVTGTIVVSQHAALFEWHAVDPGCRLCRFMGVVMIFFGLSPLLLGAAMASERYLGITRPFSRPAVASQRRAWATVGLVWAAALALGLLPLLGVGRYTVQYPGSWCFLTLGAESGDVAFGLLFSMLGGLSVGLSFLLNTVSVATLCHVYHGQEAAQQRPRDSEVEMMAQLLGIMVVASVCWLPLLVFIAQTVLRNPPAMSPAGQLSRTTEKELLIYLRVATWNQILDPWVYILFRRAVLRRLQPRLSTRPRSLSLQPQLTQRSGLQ

a1 (non-selective) = assay: Radioligand binding; settings: control compound
Protocol: as §1, §2

Na+ channel (site 2) = assay: Radioligand binding; settings: control compound
a2 (non-selective) = assay: Radioligand binding; settings: control compound
Protocol: as §1, §2

CXCR2 (IL-8B) (h) = molecular target: T3, CXCR2 (IL-8B) (h) (Homo sapiens, UniProt P25025); assay: Radioligand binding; settings: control compound
T3 construct: Cerep
T3 sequence (P25025 1-360): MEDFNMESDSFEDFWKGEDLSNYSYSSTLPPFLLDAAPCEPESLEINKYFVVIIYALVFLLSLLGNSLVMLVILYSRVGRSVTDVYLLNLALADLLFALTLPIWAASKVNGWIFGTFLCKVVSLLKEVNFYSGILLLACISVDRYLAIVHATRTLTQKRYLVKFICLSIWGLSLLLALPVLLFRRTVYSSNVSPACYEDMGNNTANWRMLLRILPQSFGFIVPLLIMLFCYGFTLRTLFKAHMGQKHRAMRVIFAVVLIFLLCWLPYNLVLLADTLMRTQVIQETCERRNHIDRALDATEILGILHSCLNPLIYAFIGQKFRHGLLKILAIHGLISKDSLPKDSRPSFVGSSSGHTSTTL

CCR1 (h) = molecular target: T4, CCR1 (h) (Homo sapiens, UniProt P32246); assay: Radioligand binding; settings: control compound
T4 construct: Cerep
T4 sequence (P32246 1-355): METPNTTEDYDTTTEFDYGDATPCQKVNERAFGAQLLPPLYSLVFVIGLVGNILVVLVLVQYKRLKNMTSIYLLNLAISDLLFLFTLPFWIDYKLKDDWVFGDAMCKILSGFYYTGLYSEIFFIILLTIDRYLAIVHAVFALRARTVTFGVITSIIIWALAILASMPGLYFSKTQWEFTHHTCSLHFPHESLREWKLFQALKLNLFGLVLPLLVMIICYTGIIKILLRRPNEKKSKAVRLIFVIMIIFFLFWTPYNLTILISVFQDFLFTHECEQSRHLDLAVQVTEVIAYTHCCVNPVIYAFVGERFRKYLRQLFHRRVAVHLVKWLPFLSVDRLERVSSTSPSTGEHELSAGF

sst (non-selective) = assay: Radioligand binding; settings: control compound
Protocol: as §1, §2

[4] = read-out: Control specific binding IC50
[5] = read-out: Control specific binding Ki
[6] = Supplementary Table 2, read-out: In vitro IC50

T1 sequence (P41595 whole entry): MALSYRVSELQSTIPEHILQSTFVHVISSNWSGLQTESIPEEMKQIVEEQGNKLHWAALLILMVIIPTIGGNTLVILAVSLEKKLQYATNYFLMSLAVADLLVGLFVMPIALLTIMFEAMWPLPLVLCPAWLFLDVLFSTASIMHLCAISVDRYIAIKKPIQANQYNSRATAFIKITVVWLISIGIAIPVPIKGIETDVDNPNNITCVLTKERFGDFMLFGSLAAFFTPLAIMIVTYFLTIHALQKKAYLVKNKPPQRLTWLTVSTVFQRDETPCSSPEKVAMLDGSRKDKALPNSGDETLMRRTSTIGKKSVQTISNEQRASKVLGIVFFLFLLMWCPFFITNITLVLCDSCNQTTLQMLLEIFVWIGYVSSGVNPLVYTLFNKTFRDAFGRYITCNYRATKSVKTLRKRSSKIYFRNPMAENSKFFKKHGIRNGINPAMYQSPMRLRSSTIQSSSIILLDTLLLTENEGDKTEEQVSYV

COc1cc(CC(C)N)c(OC)cc1I (racemic) [(±)DOI, reference compound]
IC50 (5-HT2B (h); [4]): 5.1 nM | Ki (5-HT2B (h); [5]): 4.6 nM

CC(=O)C1=C(O)[C@@H]2[C@H]3c4c[nH]c5cccc(c45)C[C@H]3C(C)(C)N2C1=O [CPA, cyclopiazonic acid, reference compound]
effect on cytoplasmic free Ca^2+ [1]: induced a strong Ca^2+ responses

COc1ccc(CCN(C)CCCC(C#N)(c2cc(OC)c(OC)c(OC)c2)C(C)C)cc1OC (stereo not drawn) [D 600, reference compound]
IC50 [2, 4]: 67 nM | Ki [2, 5]: 34 nM

N=C(N)c1cccc(NC(=O)Nc2ccc(S(=O)(=O)NCc3ccccc3)cc2)c1 [SC08165]
IC50 (P. falciparum strain Dd2; [6]): 134 nM | Papp (CACO 2 cells): 1.22 10-6 cm s-1 | Outcome (Plasmodium berghei; 50 mg kg-1 i.p. 1x4 days): inactive

N=C(N)c1cccc(NC(=O)Nc2ccc(S(=O)(=O)NCc3ccc(S(N)(=O)=O)cc3)cc2)c1 [SC09064]
IC50 (P. falciparum strain Dd2; Plasmodium falciparum, DD2, 72 h, Dd2, standard proliferation assay, 72 h exposure): 10 ± 3 nM | Papp at 2 h, 10 μM (Permeability assay): 0.28 ×10⁻⁶ cm/s | Outcome (Plasmodium vinckei): inactive | Outcome (Plasmodium berghei; 10 mg kg-1 i.v. 1x4 days): inactive | Outcome (Plasmodium berghei; 50 mg kg-1 i.p. 1x4 days): inactive | activity against P. berghei (Plasmodium berghei; in vivo): no activity | Outcome (P. chabaudi): inactive | bioavailability (PK study): 3% | Ames test (Ames test): negative | adverse effects on HepG2 cells (HepG2 cells): no adverse effects | solubility (Solubility in water; water): 316 µg/mL (≈ 629 µM) | metabolic stability, residual after 1 h of incubation [3]: 65%

CCCN1CCN(C(=N)c2cccc(NC(=O)Nc3ccc(S(=O)(=O)NCc4ccc(S(N)(=O)=O)cc4)cc3)c2)CC1 [SC82367]
IC50 (P. falciparum strain Dd2; [6]): 7 nM | Papp (CACO 2 cells): 5.40 10-6 cm s-1 | Solubility in H2O (Solubility in water): > 1000 µg/mL

CC(C)N1CCN(C(=N)c2cccc(NC(=O)Nc3ccc(S(=O)(=O)NCc4ccc(S(N)(=O)=O)cc4)cc3)c2)CC1 [SC82486]
IC50 (P. falciparum strain Dd2; [6]): 38 nM | Papp (CACO 2 cells): 2.50 10-6 cm s-1 | Solubility in H2O (Solubility in water): 100 µg/mL (≈ 163 µM)

CCC(=O)N1CCN(C(=N)c2cccc(NC(=O)Nc3ccc(S(=O)(=O)NCc4ccc(S(N)(=O)=O)cc4)cc3)c2)CC1 [SC83289]
IC50 (P. falciparum strain Dd2; [6]): 1820 nM | Papp (CACO 2 cells): 1.70 10-6 cm s-1 | Solubility in H2O (Solubility in water): 32 µg/mL (≈ 51 µM)

N=C(c1cccc(NC(=O)Nc2ccc(S(=O)(=O)NCc3ccc(S(N)(=O)=O)cc3)cc2)c1)N1CCOCC1 [SC87507]
IC50 (P. falciparum strain Dd2; [6]): 139 nM | Papp (CACO 2 cells): 1.23 10-6 cm s-1

CCCCC[C@H](O)/C=C/[C@H]1[C@@H]2CO[C@@H](C2)[C@@H]1C/C=C\CCCC(=O)O [U 44069, reference compound]
IC50 (TP (h) (TXA2/PGH2); [4]): 14 nM | Ki (TP (h) (TXA2/PGH2); [5]): 6.2 nM

COc1cc2nc(N3CCN(C(=O)c4ccco4)CC3)nc(N)c2cc1OC [prazosin, reference compound]
IC50 (a1 (non-selective); [4]): 0.82 nM | Ki (a1 (non-selective); [5]): 0.22 nM

COc1ccc(C(=O)O[C@H]2CC[C@@]3(C)[C@@H]4CC[C@H]5[C@]6(O)C[C@H](O)[C@@]7(O)[C@@H](CN8C[C@@H](C)CC[C@H]8[C@@]7(C)O)[C@]6(O)C[C@@]53O[C@]24O)cc1OC [veratridine, reference compound]
IC50 (Na+ channel (site 2); [4]): 10000 nM | Ki (Na+ channel (site 2); [5]): 9000 nM

COC(=O)[C@@H]1[C@H]2C[C@H]3c4[nH]c5ccccc5c4CCN3C[C@@H]2CC[C@@H]1O [yohimbine, reference compound]
IC50 (a2 (non-selective); [4]): 69 nM | Ki (a2 (non-selective); [5]): 30 nM

IL-8: control compound of the binding panel [reference compound]
IC50 (CXCR2 (IL-8B) (h); [4]): 0.063 nM | Ki (CXCR2 (IL-8B) (h); [5]): 0.029 nM

MIP-1a: control compound of the binding panel [reference compound]
IC50 (CCR1 (h); [4]): 0.06 nM | Ki (CCR1 (h); [5]): 0.03 nM

somatostatin-14: control compound of the binding panel [reference compound]
IC50 (sst (non-selective); [4]): 0.15 nM | Ki (sst (non-selective); [5]): 0.092 nM
